Laboratory results from patent US12060409B2, “Short cyclic peptides for the treatment of Graves' disease” (priority 2018, dated 2024).
Peptide text beside a SMILES is read from it.

Tests used:
[1] = test system: immunologically naïve mice; assay: Studies in immunologically naive mice: 6 monthly IV administrations; format: in vivo, BALB/c mice; conditions: 1 mg/kg bw IV, 6 monthly administrations
Procedure: BALB/c mice were adapted for at least one week to start experiments at the age of 12 weeks. Animals were kept as described before. This study was approved by the local animal welfare authority and Ethics committee at the Regierung von Oberbayern (Government of Upper Bavaria) in Munich, Germany (no. 55.2-1-54-2532.0-32-15), and carried out in accordance to the European Commission guidelines.
Peptides (1 mg/kg body weight) or NaCl vehicle control were given by IV injection into a tail vein of these naïve mice (n=6 per group), and then continued at 4-weekly intervals for 6 months, as described before for the therapeutic study in immunized mice. Serum samples were taken at identical intervals.

[2] = test system: TSHR-immunized diseased mice; conditions: previous study (8); cited from earlier work

| Compound | Tolerability / clinical findings [1] | Improvement of disease parameters [2] |
| --- | --- | --- |
| CC(C)C[C@@H]1NC(=O)[C@H](Cc2ccc(O)cc2)NC(=O)[C@H](C(C)C)NC(=O)[C@H](C)NC(=O)[C@H](CC(=O)O)NC(=O)[C@H](CC(C)C)NC(=O)[C@H](CCCCN)NC(=O)[C@H]([C@@H](C)O)NC(=O)CNC(=O)[C@H](CCCCN)NC(=O)[C@H](CC(N)=O)NC(=O)[C@H](CCCCN)NC(=O)[C@H](CC(N)=O)NC1=O [peptide 836 13mer, TKLDAVYLNKNKG] (HELM PEPTIDE1{A.V.Y.L.N.K.N.K.G.T.K.L.D}$PEPTIDE1,PEPTIDE1,1:R1-13:R2$$$V2.0) | no pathological clinical findings were observed |  |
| CC(C)[C@@H]1NC(=O)[C@H](CCCNC(=N)N)NC(=O)[C@H](Cc2ccccc2)NC(=O)[C@H](CC(=O)O)NC(=O)[C@H](CCC(=O)O)NC(=O)[C@H](CCC(=O)O)NC(=O)[C@H](CCC(N)=O)NC(=O)[C@H](Cc2c[nH]cn2)NC(=O)[C@@H](N)CSSC[C@@H](C(=O)O)NC(=O)[C@H]([C@@H](C)O)NC1=O [peptide 19, CHQEEDFRVTC] (HELM PEPTIDE1{C.H.Q.E.E.D.F.R.V.T.C}$PEPTIDE1,PEPTIDE1,1:R3-11:R3$$$V2.0) | no pathological clinical findings were observed |  |
| SPPCECHQEEDFRVTCKDIQRIPS (cyclic; Amino acid sequence derived from human thyrotropin-TSH receptor (TSHR)) [peptide 829] |  | small, non-significant trends to improve disease parameters |
